Assay results published in patent EP0816848A1, “Method for comparative screening of substances with pharmacological activity” (BOEHRINGER INGELHEIM INTERNATIONAL GmbH, priority 1996, dated 1998).

Experiments:
[1] = target: T1, Ras (Homo sapiens, UniProt P01112, G12V); assay: Proliferation assay (MTS) dose-response, Ras test cell line ("FHR V12"); assay type: cell-based; details: Ras test cell line "FHR V12" (Fig. 7)
T1 construct: expressed in transfected cells
Experimental: (§1) FDC-P1 Zellen (Dexter et al., 1980) wurden in IMDM Medium (BioWhittaker), versetzt mit 10% hitzeinaktiviertem fötalem Kälberserum (FCS), 2 mM Glutamin, 50 µM β-Mercaptoäthanol und 1% IL-3 angesetzt und bei 37°C in 5% CO2 inkubiert. 10^7 Zellen pro Transfektion wurden 5 min bei 1200 UpM bei Raumtemperatur abzentrifugiert (Heraeus Minifuge), einmal mit serumfreiem RPMI-1640 Medium gewaschen, und in 1 ml serumfreiem Medium suspendiert. 800 µl dieser Zellsuspension wurden in einer Elektroporationsküvette mit 20 µg Plasmid pGDV12ras gemischt und mit einem einzelnen Stromstoß von 280 V, 980 µF und 1000 ms elektroporiert (Progenetor II, Hoefer Instruments). Die Zellen wurden in 10 ml Kulturmedium mit 1% IL-3 verdünnt und bei 37°C, 5% CO2 inkubiert. Zwei Tage nach der Transfektion wurden die Zellen mit frischem Medium 3-fach verdünnt und 250 µg/ml G-418 zur Selektion auf Neomycin-resistenz zugesetzt. An den darauffolgenden Tagen wurde die G-418 Konzentration auf 500, 750 und 1000 µg/ml erhöht. Tote Zellen wurden mittels Zentrifugation durch einen Ficoll-Gradienten entfernt. Dazu wurden die Zellen zuerst mittels Zentrifugation (5 min, 1200 UpM) in einem geringen Volumen aufkonzentriert und in einem Zentrifugenröhrchen über Ficoll-Paque (Pharmacia) geschichtet. […]

[2] = target: T2, HER-2 (Homo sapiens, UniProt P04626, V659E); assay: Proliferation assay (MTS) dose-response, HER-2 test cell line; assay type: cell-based; details: HER-2 test cell line (Fig. 7)
T2 construct: enthält nun die komplette kodierende Region der mutierten, konstitutiv aktiven Form HER2(V659E); expressed in transfected cells
T2 sequence (P04626 23-1255 V659E): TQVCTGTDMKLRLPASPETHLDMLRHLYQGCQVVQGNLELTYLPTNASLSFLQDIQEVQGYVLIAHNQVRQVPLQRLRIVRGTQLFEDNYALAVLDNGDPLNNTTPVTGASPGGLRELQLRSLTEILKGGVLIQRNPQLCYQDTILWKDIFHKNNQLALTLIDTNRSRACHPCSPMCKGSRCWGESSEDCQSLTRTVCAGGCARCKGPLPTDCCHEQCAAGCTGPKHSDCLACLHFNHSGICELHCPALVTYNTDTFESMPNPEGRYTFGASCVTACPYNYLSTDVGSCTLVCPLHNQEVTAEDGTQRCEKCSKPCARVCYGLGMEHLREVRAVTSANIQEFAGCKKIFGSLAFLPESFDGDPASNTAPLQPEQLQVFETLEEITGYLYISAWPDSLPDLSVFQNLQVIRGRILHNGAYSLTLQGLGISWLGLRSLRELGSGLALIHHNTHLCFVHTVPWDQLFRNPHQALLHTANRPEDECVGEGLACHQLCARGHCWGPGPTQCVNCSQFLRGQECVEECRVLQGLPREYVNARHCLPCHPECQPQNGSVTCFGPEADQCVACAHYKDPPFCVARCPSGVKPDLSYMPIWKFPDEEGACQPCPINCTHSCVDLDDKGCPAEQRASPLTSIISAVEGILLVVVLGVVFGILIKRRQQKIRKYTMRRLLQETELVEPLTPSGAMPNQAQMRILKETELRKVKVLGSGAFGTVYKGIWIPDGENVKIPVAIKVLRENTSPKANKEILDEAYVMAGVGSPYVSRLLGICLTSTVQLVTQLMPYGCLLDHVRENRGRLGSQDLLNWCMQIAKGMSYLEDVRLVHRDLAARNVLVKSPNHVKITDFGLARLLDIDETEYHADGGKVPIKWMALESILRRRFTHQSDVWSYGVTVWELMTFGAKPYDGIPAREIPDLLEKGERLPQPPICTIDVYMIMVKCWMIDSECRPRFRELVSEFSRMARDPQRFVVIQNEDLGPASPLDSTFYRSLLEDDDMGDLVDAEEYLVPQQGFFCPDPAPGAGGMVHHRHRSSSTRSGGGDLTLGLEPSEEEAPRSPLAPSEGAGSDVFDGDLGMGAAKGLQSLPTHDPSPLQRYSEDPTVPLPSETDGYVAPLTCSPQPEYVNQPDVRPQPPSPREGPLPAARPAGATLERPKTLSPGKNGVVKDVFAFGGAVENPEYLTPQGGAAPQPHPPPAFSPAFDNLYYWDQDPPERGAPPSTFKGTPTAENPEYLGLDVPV
Experimental: FDC-P1-Zellen (Dexter et al., 1980), die IL-3-abhängig wachsen, wurden mit Plasmid pAHygCMVHer2(V659E) folgendermaßen transfiziert: Etwa 1x10^7 Zellen wurden in IMDM-Medium (Bio-Whittaker) mit 10 µg Plasmid DNA gemischt und mit einem Elektroporator (Hoefer, Progenetor II) bei 980 µF, 280 V für 1000 ms elektroporiert. Die Zellen wurden in IMDM-Medium in Anwesenheit von 10% hitzeinaktiviertem fötalem Kälberserum, 50 µM β-Mercaptoethanol, Standardantibiotika, und 1% IL-3 bei 37°C unter 5% CO2 gehalten und durch Zugabe von 300 mg/l Hygromycin B (Boehringer Mannheim) selektioniert. Nach erfolgreicher Selektion wurden die Zellen langsam von IL-3 entwöhnt, der IL-3-unabhängig wachsende Zellpool anschließend in Methocel subkloniert. Einzelne Klone wurden gepickt und in Medium ohne IL-3 hochgezogen.
Einzelne Klone wurden in einem Fluoreszenz-aktivierten Zell-Sorter (Becton-Dickinson, FACSort) auf Oberflächenexpression von HER2 getestet, dabei wurde als primärer Antikörper ein gegen die extrazelluläre Domäne von HER2 gerichteter Maus-Antikörper verwendet (Oncogene Science, c-neu (Ab-2)), und als sekundärer Antikörper ein Fluorescein Isothiocyanat (FITC)-konjugierter anti-Maus IgG Antikörper (Dianova, Hamburg). Der Subklon mit der besten Oberflächenexpression von HER2(V659E), genannt FDCP/Her2-C42#16, wurde für das Screenen verwendet. […]

[3] = test system: HGF-R; assay: Proliferation assay (MTS) dose-response, HGF-R test cell line ("TPRmet"); assay type: cell-based, human; details: HGF-R test cell line "TPRmet" (Fig. 7)
[4] = target: EGF-Rezeptor (Homo sapiens, UniProt P00533); assay: c-fos promoter luciferase reporter assay in KB-B4 cells, EGF-induced; assay type: cell-based; details: 1 ng/ml EGF, 6 h (Fig. 6)
Chain of EGF-Rezeptor (P00533 25-1210): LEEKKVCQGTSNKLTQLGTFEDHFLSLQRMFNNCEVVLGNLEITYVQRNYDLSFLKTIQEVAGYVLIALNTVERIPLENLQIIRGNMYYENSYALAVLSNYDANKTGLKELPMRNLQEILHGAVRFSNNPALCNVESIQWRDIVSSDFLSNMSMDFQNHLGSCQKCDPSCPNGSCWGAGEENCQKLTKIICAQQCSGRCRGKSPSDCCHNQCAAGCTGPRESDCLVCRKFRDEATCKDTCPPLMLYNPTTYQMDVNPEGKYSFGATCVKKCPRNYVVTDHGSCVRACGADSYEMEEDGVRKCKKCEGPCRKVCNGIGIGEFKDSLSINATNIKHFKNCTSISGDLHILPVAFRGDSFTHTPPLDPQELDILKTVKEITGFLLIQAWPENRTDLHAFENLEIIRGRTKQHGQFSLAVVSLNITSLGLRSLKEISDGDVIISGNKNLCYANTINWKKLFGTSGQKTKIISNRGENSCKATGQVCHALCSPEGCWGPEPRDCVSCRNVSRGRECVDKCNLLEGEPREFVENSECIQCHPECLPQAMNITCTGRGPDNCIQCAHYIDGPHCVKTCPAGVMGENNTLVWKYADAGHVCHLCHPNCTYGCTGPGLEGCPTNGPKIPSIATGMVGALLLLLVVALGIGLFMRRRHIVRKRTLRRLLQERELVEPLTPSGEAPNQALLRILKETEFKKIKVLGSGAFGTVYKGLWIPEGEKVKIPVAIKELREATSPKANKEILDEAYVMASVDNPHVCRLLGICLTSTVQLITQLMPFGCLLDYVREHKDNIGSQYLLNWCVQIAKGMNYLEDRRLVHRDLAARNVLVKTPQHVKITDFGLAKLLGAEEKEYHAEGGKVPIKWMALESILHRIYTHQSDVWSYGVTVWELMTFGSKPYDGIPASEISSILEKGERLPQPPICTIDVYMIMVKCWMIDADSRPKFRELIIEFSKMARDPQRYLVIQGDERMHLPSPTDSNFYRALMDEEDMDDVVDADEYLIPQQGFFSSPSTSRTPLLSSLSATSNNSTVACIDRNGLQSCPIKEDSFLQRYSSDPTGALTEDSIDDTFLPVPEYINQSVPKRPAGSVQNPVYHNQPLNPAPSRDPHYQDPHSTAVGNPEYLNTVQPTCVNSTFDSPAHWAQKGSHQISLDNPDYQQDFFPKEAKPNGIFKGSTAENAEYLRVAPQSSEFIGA
Experimental: Die humane epidermoide Karzinomzellinie KB (ATCC CCL 17), wurde mit Plasmid pBHfosluci folgendermaßen transfiziert: Etwa 1x10^6 Zellen pro 10 cm Platte wurden in DMEM-Medium (Bio-Whittaker) in Anwesenheit von 10% hitzeinaktiviertem fötalem Kälberserum in mehrere Platten ausgesät. Am nächsten Tag wurde 20 µg Plasmid-DNA mit Calcium-Phosphat präzipitiert und das Präzipitat langsam auf die Zellen getropft. Nach 4 Stunden wurden die Zellen für 2 min in 15% Glycerin inkubiert, gewaschen und dann in DMEM-Medium in Anwesenheit von 10% hitzeinaktiviertem fötalem Kälberserum und Standardantibiotika bei 37°C unter 5% CO2 gehalten. Die Zellen wurden durch Zugabe von 0.5 g/l G418 (GIBCO BRL) selektioniert. Einzelne G418-resistente Zellklone wurden hochgezogen und auf Induzierbarkeit der Luciferaseexpression durch Zugabe von HGF (Sigma) getestet. Ungefähr 10000 Zellen jedes Klons wurden in 6facher Ausfertigung in 200 µl pro Vertiefung in einer lichtundurchlässigen, gewebekulturbeschichteten Mikrotiterplatte mit 96 Vertiefungen (Microlite™, Dynatech Laboratories) ausgesät und über Nacht bei 37°C inkubiert. Jeweils drei Ansätze wurden mit 20 ng/ml HGF behandelt und weitere 6 h inkubiert. Anschließend wurde das Medium entfernt und die Zellen zweimal mit PBS gewaschen. […]

[5] = test system: H-ras^Val12; assay: Detection of inhibition of Ras farnesylation (immunoprecipitation, SDS gel, Western blot) in FHRV12cc21 cells; assay type: cell-based, mouse; details: 5 µM, 48 h, 1% IL-3
Experimental: Nachweis der H-ras^Val12 Expression FHRV12cc21 und untransfizierte FDC-P1 Zellen wurden in IMDM Medium mit 10% FCS und 1% IL-3 gezüchtet. Zum Nachweis der Hemmung der posttranslationalen Modifikation von H-ras^Val12 durch Farnesylierung wurden die Zellen für 48 Stunden mit 5 µM des Protein-Farnesyltransferase-Inhibitors L-739.749 (Kohl et al., 1994) inkubiert. Die Zellen wurden mit PBS gewaschen und in PBSTDS (1% Triton X-100, 0.5% Natriumdesoxycholat, 0.1% Natriumdodecylsulfat in PBS) 5 min bei 4°C lysiert. Die Zellysate wurden durch Zentrifugation (20 min 14.000x g, 4°C) geklärt. Ras Proteine wurden durch Zusatz von 1 µg monoklonalen Ratten Antikörper Y13-238 (Oncogene Science) und Protein-G Plus / Protein-A Agarose (Oncogene Science) über Nacht bei 4°C immunpräzipitiert. Die Präzipitate wurden zweimal mit PBSTDS Puffer gewaschen und anschließend in SDS-Probenpuffer mit 3% β-Mercaptoethanol ausgenommen. Die Proteine wurden in einem 20%igen SDS-Polyacrylamidgel aufgetrennt, auf eine Immobilon-Membran (Millipore) transferiert und nach Absättigen der Membran mit 10% FCS, 1% Rinderserumalbumin, 1% Tween-20 in PBS, durch aufeinanderfolgende Inkubation mit einem Ras^Val12 spezifischen monoklonalen Antikörper (pan-Ras^Val12, Oncogene Science) und einem sekundären anti-Maus-IgG - Alkalische Phosphatase-Konjugat durch Färbereaktion mit NBT und BCIP (Promega) nachgewiesen. […]

[6] = test system: H-ras^Val12; assay: Inhibition of IL-3 independent growth of H-ras^Val12 transfected FDC-P1 cells (FHRV12cc21), viability by MTS assay; assay type: cell-based, mouse; details: IL-3 free medium, relative absorption (Fig. 1)
Experimental: as §1

[7] = test system: H-ras^Val12; assay: Inhibition of IL-3 independent growth of H-ras^Val12 transfected FDC-P1 cells (FHRV12cc21), DNA synthesis by [3H]thymidine incorporation; assay type: cell-based, mouse; details: IL-3 free medium (Fig. 2)
Experimental: as §1

T1 sequence (P01112 1-186 G12V): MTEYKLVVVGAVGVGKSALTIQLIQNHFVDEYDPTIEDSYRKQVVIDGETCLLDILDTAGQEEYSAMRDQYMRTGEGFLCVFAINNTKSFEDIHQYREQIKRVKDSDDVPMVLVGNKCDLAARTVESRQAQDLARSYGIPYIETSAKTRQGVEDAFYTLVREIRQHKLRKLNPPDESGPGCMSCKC

Clc1cccc(Nc2ncnc3cnc(NC4CC4)nc23)c1 [4-[(3-Chlorphenyl)amino]-6-(cyclopropylamino)-pyrimido-[5,4-d]pyrimidin]
Konzentration, bei der Effekte auf die Proliferation der Zellen zu messen sind, relative to IC50 on the EGF-dependent cell line [1]: ≥ 100 fach
Konzentration, bei der Effekte auf die Proliferation der Zellen zu messen sind, relative to IC50 on the EGF-dependent cell line [2]: ≥ 100 fach
Konzentration, bei der Effekte auf die Proliferation der Zellen zu messen sind, relative to IC50 on the EGF-dependent cell line [3]: ≥ 100 fach

COc1cc2ncnc(Nc3cccc(C)c3)c2cc1OC [6,7-Dimethoxy-4-(3-methylphenylamino)chinazolin]
Inhibierung der Luciferase-Induktion durch EGF [4]: inhibitorische Wirkung

CC[C@H](C)[C@@H](CO[C@@H](Cc1ccccc1)C(=O)N[C@@H](CCS(C)(=O)=O)C(=O)OC)NC[C@@H](N)CS [L-739.749, 2(S)-{2(S)-[2(R)-Amino-3-mercapto]propylamino-3(S)-methyl}pentyloxy-3-phenylpropionylmethioninsulfonmethyl ester]
Ras-Protein in der unmodifizierten (nicht farnesylierten) Form [5]: > 50%
Hemmung der H-ras^Val12 abhängigen Proliferation (Viabilität) [6]: Hemmung der H-ras^Val12 abhängigen Proliferation (Viabilität)
Hemmung der H-ras^Val12 abhängigen Proliferation (DNA-Synthese) [7]: Hemmung der H-ras^Val12 abhängigen Proliferation (DNA-Synthese)
